Key:
Assay type in all cases: in vivo
[1] = tested on: Mediterranean Fruitfly (Ceratitis capitata); assay: B.6 Mediterranean Fruitfly (Ceratitis capitata), microtiter plate insect diet; conditions: 120 h, 800 ppm, sprayed onto insect diet, 5 days, in comparison with untreated controls, read-out: mortality (egg and larval)
Outline: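 Insect diet with 50-80 C. capitata eggs sprayed with compounds formulated in 75% water/25% DMSO, at different concentrations, two replications. Incubation at about 28±1° C and 80±5% relative humidity for 5 days, then egg and larval mortality assessed visually.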

[2] = tested on: Orchid thrips (dichromothrips corbetti); assay: B.12 Orchid thrips (dichromothrips corbetti), floral-immersion technique; conditions: adult thrips on dipped orchid petals, 72 hours after treatment, in comparison with untreated controls
Outline: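 Whole orchid flower petals were dipped in compound in 1:1 acetone:water with 0.01% v/v Kinetic HV, dried, and enclosed with about 20 adult thrips. They were held under continuous light at about 28° C. Live thrips were counted and percent mortality recorded at 72 hours.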

[3] = tested on: Orchid thrips (dichromothrips corbetti); assay: B.2 Orchid thrips (dichromothrips corbetti), floral-immersion technique; conditions: adult thrips on dipped orchid petals, 72 hours after treatment, in comparison with untreated controls
Protocol: B.2 Orchid thrips (dichromothrips corbetti)
Dichromothrips corbetti adults used for bioassay were obtained from a colony maintained continuously under laboratory conditions. For testing purposes, the test compound is diluted in a 1:1 mixture of acetone:water (vol:vol), plus Kinetic HV at a rate of 0.01% v/v.
Thrips potency of each compound was evaluated by using a floral-immersion technique. All petals of individual, intact orchid flowers were dipped into treatment solution and allowed to dry in Petri dishes. Treated petals were placed into individual resealable plastic along with about 20 adult thrips. All test arenas were held under continuous light and a temperature of about 28° C. for duration of the assay. After 3 days, the numbers of live thrips were counted on each petal. The percent mortality was recorded 72 hours after treatment.

[4] = tested on: Boll Weevil (Anthonomus grandis); assay: B.3 Boll Weevil (Anthonomus grandis), microtiter plate insect diet; conditions: 120 h, 800 ppm, sprayed onto insect diet, 5 days, in comparison with untreated controls, read-out: mortality (egg and larval)
Outline: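 Compounds in 25% DMSO/water sprayed at several concentrations onto insect diet in microtiter wells holding 5–10 A. grandis eggs, two replicates. Plates kept 5 days at about 25±1 °C and 75±5% RH. Egg and larval mortality scored visually.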

[5] = tested on: Yellow Fever Mosquito (Aedes aegypti); assay: whole plant or invertebrate; conditions: 48 h, freshly hatched larvae in tap water, 2 days, in comparison with untreated controls, read-out: mortality (larval)
Outline: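 Freshly hatched A. aegypti larvae, 5–15 per well, were held in 200 μl tap water. Compounds formulated in 75:25 water:DMSO were sprayed at various concentrations, 2.5 μl per well by micro-atomizer, in two replicates.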

[6] = tested on: Green Peach Aphid (Myzus persicae); assay: B.9 Green Peach Aphid (Myzus persicae), sprayed bell pepper plants; conditions: 120 h, infested bell pepper plants sprayed, after 5 days, in comparison with untreated controls
Outline: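 Bell pepper plants at first true-leaf stage, infested with 30-50 aphids each, were sprayed electrostatically with compound in 50% acetone:water plus 0.01% nonionic surfactant. Held at about 25° C, 24-hr light, 20-40% RH. Mortality versus untreated controls scored after 5 days.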

[7] = tested on: Southern Armyworm (Spodoptera eridania), 2nd Instar Larvae; assay: B.10 Southern Armyworm (Spodoptera eridania), 2nd Instar Larvae, sprayed lima bean plants; conditions: 96 h, 300 ppm, larvae on sprayed lima bean plants, 4 days after treatment, in comparison with untreated controls, read-out: mortality
Outline: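 Lima bean plants at 1st true leaf stage sprayed electrostatically with compound in 50% acetone:50% water plus 0.01% nonionic surfactant, then infested with about 10 to 11 2nd instar larvae. Mortality and reduced feeding assessed 4 days after treatment at about 25° C versus untreated plants.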

[8] = tested on: Diamond Back Moth (Plutella xylostella); assay: B.1 Diamond Back Moth (Plutella xylostella), cabbage leaf dip; conditions: foliar, 500 ppm, 3rd instar larvae on dipped cabbage leaves, 72 hours after treatment, in comparison with untreated controls, read-out: mortality
Outline: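 Cabbage leaves dipped in compound in 1:1 water:acetone with 0.01% Kinetic HV surfactant, air-dried, then infested with ten 3rd-instar larvae on moist filter paper. Mortality scored at 72 h after treatment; feeding damage rated on a 0-100% scale.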

[9] = tested on: Tobacco Budworm (Heliothis virescens); assay: B.7 Tobacco Budworm (Heliothis virescens) I, microtiter plate insect diet; conditions: 120 h, 800 ppm, sprayed onto insect diet, 5 days, in comparison with untreated controls, read-out: mortality (egg and larval)
Outline: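 96-well plates with insect diet and 15-25 H. virescens eggs; compounds in 75% water/25% DMSO sprayed onto diet at several concentrations, two replicates. Plates held at about 28±1° C. and 80±5% relative humidity for 5 days, then egg and larval mortality scored visually.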

Cc1cccc(C)c1NC(=S)N/N=C/c1ccc2c(ccc3c2ncn3-c2ccc(OC(F)(F)F)cc2)c1 [C-1, 1-(2,6-dimethylphenyl)-3-[(E)-[3-[4-(trifluoromethoxy)phenyl]benzo[e]benzimidazol-7-yl]methyleneamino]thiourea]
≥ 75%: mortality at 800 ppm [1] | mortality at 500 ppm [2] | mortality at 300 ppm [3] | mortality at 800 ppm [4] | mortality at 800 ppm [5] | mortality at 800 ppm [6] | mortality at 300 ppm [7] | mortality at 500 ppm [8] | mortality at 800 ppm [9]
